Laboratory results taken from PubChem BioAssay AID179 (DTP/NCI, 2004).
Values joined by “and” are separate entries in the source; they are usually repeats but may differ in a detail not shown here. Identical values can stand only once. Active and inactive are the calls of the source.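 The calls were made as follows: active = compounds giving half or more protection of infected cells from virus-caused growth loss, again on retest; inactive = the rest.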

Tested on: CEM cells HIV-1 protection, formazan growth assay
Experiment: NCI AIDS Antiviral Assay
Conditions: for IC50: measured here: growth of uninfected CEM cells
How it was run: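 Human CEM cells, uninfected and HIV-1-infected, received five drug concentrations, and growth was read by soluble formazan assay. Compounds giving at least 50% protection were retested; reproducible 100% protection defined confirmed active.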

Row | Structure (SMILES) | EC50 [µM] | IC50 | outcome
1 | CC(=O)c1ccccc1NS(=O)(=O)c1ccc2nc(C)n(NS(=O)(=O)c3ccccc3C(C)=O)c(=O)c2c1 | > 200 | > 200 µM | –
2 | Clc1nc(NC2CCCCC2)nc(NC2CCCCC2)n1 | – | – | inactive
3 | CC(O)c1nc2c3ccccc3ccc2n1C (centres undefined) | > 776 | 389 µM | –
4 | O=c1[nH]c(=O)n([C@H]2C[C@@H](CO)[C@@H](O)C2)cc1I | > 708 | > 708 µM | –
5 | CC(=O)CCN1CC2CN=NC2(C#N)C1 (centres undefined) | > 200 | 46.8 µM | –
6 | CCOC(=O)C(=Cc1ccccc1OC)C(=O)OCC | > 129 | 21.9 µM | –
7 | Cc1ccc(NC=O)c(-c2c(N)[nH]c(=S)[nH]c2=O)c1 | > 200 | 148 µM | –
8 | COc1cccc(/C=N/NC(=O)CN(C)C)c1O | > 200 | 51.3 µM | –
9 | CCCN(CCC)C(=O)Cc1c2n(c3ccccc13)CCCc1ccccc1-2 | > 13.8 | > 13.8 µM | –
10 | Cc1ccc(NCCN(C)C)c2c(=O)c3cc(O)ccc3oc12 | > 155 | 1.02 µM | –
11 | NCc1ccc(S(N)(=O)=O)cc1 | > 200 | > 200 µM | –
12 | CCCCN(CCC/C=C/OC)C(C#N)c1ccccc1 (centres undefined) | > 871 | > 871 µM | –
13 | COc1ccc(Oc2ccccc2N)cc1 | – | – | inactive
14 | CC1=C(C(=O)Nc2cc(=O)n(C)c(=O)n2C)C(c2ccc([N+](=O)[O-])cc2)C(C(=O)Nc2cc(=O)n(C)c(=O)n2C)=C(C)N1 | > 8.71 | > 8.71 µM | –
15 | O=C1NP23(OCCO2)Oc2ccccc2C3(C(F)(F)F)O1 (centres undefined) | > 776 | 389 µM | –
16 | O=C(c1ccccc1)c1c(-c2ccccc2)sc2nc3ccccc3nc12 | > 27.5 | > 27.5 µM | –
17 | CCC(C)[P+](c1ccccc1)(c1ccccc1)c1ccccc1 (centres undefined) | > 200 | 2.63 µM and 2.51 µM | –
18 | CN1C(=O)C(O)(CC(=O)c2ccccc2)c2ccccc21 (centres undefined) | > 200 | 35.5 µM | –
19 | C1CSCCSCCSCCSC1 | > 38.9 | > 38.9 µM | –
20 | CCC(C(=O)NC1CN2CCC1CC2)c1ccccc1 (centres undefined) | > 200 | 174 µM | –
21 | CCCCN(CCCC)CCCOC(=O)c1ccc2oc3ccc(C(=O)OCCCN(CCCC)CCCC)cc3c2c1 | > 38.9 | 10.5 µM | –

Row | Structure (SMILES) | EC50 [µM] | IC50 | outcome
22 | O=C(O)Cc1sc(=O)[nH]c1O | > 200 | > 200 µM | –
23 | COc1cc2c(cc1OC)C(C#N)C2 (centres undefined) | 1050 | 1320 µM | –
24 | CCN(CC)CC1CCCCN1CC(=O)N1c2ccccc2NC(=O)CC1C (centres undefined) | 158 | > 200 µM | –
25 | COc1cc(/C=C2/SC(c3ccccc3)N(c3ccc(Cl)cc3)C2=O)cc(OC)c1OC (centres undefined) | – | – | inactive
26 | CCCCCCCCCCCc1c(O)c(=O)c2c(oc3c(=O)c(CCCCCCCCCCC)c(O)c(=O)c3n2-c2ccc(N(C)C)cc2)c1=O | > 2.04 | > 2.04 µM | –
27 | c1ccc(SC23C4C5C6C4C2C6C53)nc1 (centres undefined) | > 151 | 77.6 µM | –
28 | COc1cc2c(cc1O)[C@@]1(Cc3ccc(OC)c(OC)c3)CCC(=O)N1CC2 | – | – | inactive
29 | CC(=O)c1ccc(N2C(=O)C3c4[nH]c5ccccc5c4C4CCC(C(C)(C)C)CC4C3C2=O)cc1 (centres undefined) | > 11.2 | > 11.2 µM | –
30 | O=Nc1c(O)[nH]c(=S)[nH]c1=O | > 148 | 115 µM | –
31 | COCN1C(=N)C(C(=O)OC(C)(C)C)=C2C=C(O)C=CC21C (centres undefined) | > 200 | 1.45 µM | –
32 | Clc1ccc2nc(-c3ccccc3)nc(Cl)c2c1 | – | – | inactive
33 | Cc1noc(NS(=O)(=O)c2ccc(NC(=S)/N=C/c3c(O)[nH]c(=O)[nH]c3=O)cc2)c1C | > 200 | > 200 µM | –
34 | O=C(N/C(=C\c1ccc([N+](=O)[O-])cc1)c1nc2ccccc2[nH]1)c1ccccc1 | > 35.5 | > 35.5 µM | –
35 | Brc1ccc(-c2[nH]c3ccccc3c2N=Nc2ccccc2)cc1 | > 200 | 13.5 µM | –
36 | N#CCCN(CCO)CCO | > 200 | > 200 µM | –
37 | Cn1nc2n(c1=O)CCCN2 | > 200 | > 200 µM | –
38 | Cc1ccc(N2C(=O)C3c4[nH]c5ccc(C)cc5c4C4CCC(C(C)(C)C)CC4C3C2=O)cc1 (centres undefined) | > 200 | 13.8 µM | –
39 | N#CC1=C(N)N(/N=C/c2ccco2)C(c2ccco2)C1(C#N)C#N (centres undefined) | > 200 | 7.94 µM | –
40 | COC(=O)c1cc(C(=O)OC)c(C/C(=N/NC(=O)C[N+](C)(C)C)C(=O)Nc2cccc(C(F)(F)F)c2)nc1C/C(=N/NC(=O)C[N+](C)(C)C)C(=O)Nc1cccc(C(F)(F)F)c1 | > 200 | 105 µM | –
41 | N#Cc1c(-c2ccc(F)cc2)c(-c2ccc(F)cc2)nn(CCO)c1=O | > 141 | 1.48 µM | –
42 | CC(=O)C1(Cc2cccc3ccccc23)S(=O)(=O)OCCOS1(=O)=O | > 200 | 110 µM | –

Row | Structure (SMILES) | EC50 [µM] | IC50 | outcome
43 | COC(=O)CCCc1c(-c2[nH]c3ccccc3c2CCCC(=O)OC)[nH]c2ccccc12 | > 200 | > 200 µM | –
44 | O=C(CCl)Nc1ccc(SSc2ccc(NC(=O)CCl)cc2)cc1 | > 2 | 1.35 µM | –
45 | C1CC2N=C3OCCC3N=C2O1 (centres undefined) | > 1510 | > 1510 µM | –
46 | O=C(NCCSSCCNC(=O)/C(Cc1ccc(O)c(Br)c1)=N/O)/C(Cc1ccc(O)c(Br)c1)=N/O | – | – | inactive
47 | O=C(c1cccc(OCc2ccccc2)c1OCc1ccccc1)N1CCSC1=S | > 200 | 9.12 µM | –
48 | C[C@@]12C[C@@H](c3ccccc3O1)N1CCCSC1=N2 | 74.1 | > 200 µM | –
49 | NC(CCCCNC(=O)C(Cc1ccccc1)NC(=O)OCc1ccccc1)C(=O)NC(CCCCNC(=O)C(Cc1ccccc1)NC(=O)OCc1ccccc1)C(=O)NC(CCCCNC(=O)C(Cc1ccccc1)NC(=O)OCc1ccccc1)C(=O)NC(CCCCNC(=O)C(Cc1ccccc1)NC(=O)OCc1ccccc1)C(=O)NC(CCCCNC(=O)C(Cc1ccccc1)NC(=O)OCc1ccccc1)C(=O)NC(CCCCNC(=O)C(Cc1ccccc1)NC(=O)OCc1ccccc1)C(=O)O (centres undefined) | > 50.1 | > 50.1 µM | –
50 | CCOC(=O)Nc1cc2nnc(-c3ccccc3)nc2c(N)n1 | – | – | inactive
51 | CCOC(=O)/C(=C\c1ccc(C#N)cc1)C(C)=O | > 148 | 77.6 µM | –
52 | O=P(O)(O)Cc1c(Cl)c(Cl)c(CP(=O)(O)O)c(Cl)c1Cl | > 200 | > 200 µM | –
53 | O=S(Nc1ccccc1)c1ccc(-c2ccccc2)cc1 (centres undefined) | > 200 | > 200 µM | –
54 | NC1=C(c2nc(-c3cc4ccccc4oc3=O)cs2)C(c2ccco2)c2c(c3ccccc3oc2=O)O1 (centres undefined) | > 100 | > 100 µM | –
55 | CCC(C)C(=O)c1c(O)c(CC=C(C)C)c2c3c(cc(=O)oc13)C(CC)O2 (centres undefined) | > 200 | 25.1 µM | –
56 | CN(C)/N=C(/CC(O)(C(F)(F)F)C(F)(F)F)c1ccc([N+](=O)[O-])cc1 | > 200 | 31.6 µM | –
57 | C1CCC2C(C1)CCCC2NC1=NCCO1 (centres undefined) | > 200 | 115 µM | –
58 | N/C(=N\N=C\c1cc(I)cc(I)c1O)NO | > 200 | 10.5 µM | –
59 | Nc1nc(Cl)c(CO)c(NCC2(CO)CCC2)n1 | > 200 | 191 µM | –
60 | CCOC(=O)C(Cl)C1(O)Cc2cccc3cccc1c23 (centres undefined) | > 200 | 110 µM | –
61 | N.N.N.N.N.NC(=O)c1nn[n-]n1.[Cl-].[Co+3] | > 759 | > 759 µM | –
62 | N#C/C(=C\n1ccc(=O)[nH]c1=S)C(N)=O | > 200 | > 200 µM | –
63 | Cc1cn(COCCS(=O)c2ccccc2)c(=O)[nH]c1=O (centres undefined) | > 200 | > 200 µM | –
